In patent US20140178305A1, “IDENTIFICATION AND USE OF ANXIOLYTIC COMPOUNDS” (CALIFORNIA INSTITUTE OF TECHNOLOGY, priority 2012, published 2014):
Entries after “also recorded” stand apart in the source; their conditions may differ.

Key:
Assay type in all cases: in vivo, mouse
[1] = system: MRGPRB4+ spinal afferent fibres co-expressing GCaMP3.0 and hM3DREADD; assay: Calcium imaging after spinal application of CNO in MrgprB4+ fibres expressing hM3DREADD and GCaMP3.0; conditions: CNO 1.5 mM, mice co-injected with GCaMP3.0 and hM3DREADD viruses
Experimental: KCl, final concentration (60 mM), α,β-methyl ATP (5 mM) and CNO (1.5 mM) were delivered manually to the imaging bath using a pipetman pipette.
The stimuli used to activate MRGPRB41 fibres were designed to mimic stroking and allogrooming stimuli. […] To determine whether direct activation of MRGPRB41 neurons could similarly promote a preference for the location in which this stimulation occurred, a pharmacogenetic strategy was used. Juvenile (1-month-old) Mrgprb4-cre male mice were injected neonatally with an AAV encoding the hM3-(Gq-coupled)DREADD19, the activation of which by clozapine-N-oxide (CNO) causes membrane depolarization (FIG. 4a).
Spinal application of CNO was employed to image activation of hM3DREADD and GCaMP3.0-expressing MrgprB4^+ fibers. The low probability of double-infection of individual MrgprB4^+ neurons with both the GCaMP3.0 and hM3DREADD Cre-dependent viruses (˜30%), taken together with the difficulty of identifying sites for focal peripheral injection corresponding to specific MrgprB4^+ central afferent fibers visualized in the spinal cord, precluded peripheral delivery of CNO for this assay.

[2] = system: MRGPRB4+ neurons (hM3DREADD); assay: Conditioned place preference (CPP) assay, biased design, pharmacogenetic activation with CNO
Experimental: For behavioral experiments, juvenile (1-month-old) mice neonatally injected with Cre-dependent AAV8 viruses expressing hM3DREADD were subjected to a conditioned place preference assay (CPP13) using a biased design, by an investigator blind to genotype. All mice were tested for their initial chamber preference before conditioning, as depicted in FIG. 4C, lower panel).
The conditioned place preference (CPP) protocol was based on previous studies. For testing a positive valence effect of activation of MrgprB4^+ neurons, a biased compartment assignment procedure in which activation of the neurons is tested for its ability was used to increase the time spent in the initially non-preferred chamber. The CPP apparatus consisted of a rectangular chamber divided into three compartments (300×150×150 mm per compartment), connected via an opening (50×50 mm) in each delimiting wall. The two side (test) compartments were designed to have different visual and tactile cues, by having distinct walls (horizontal or vertical alternating white and black stripes) and distinct floors (different shapes of floor grids with big or small square holes). In addition a 1-inch-diameter polyvinylchloride (PVC) pipe coupler (two schedule 40 wall thickness), either threaded or smooth, was placed in the centre of each side compartment to enrich for tactile cues. The centre compartment was a neutral plastic enclosure (see FIG. 4B). This design was chosen so as to promote a compartment preference assignment for each mouse. A video tracking system (Noldus Ethovision) recorded all animal movements.
Because our hypothesis is based on the social reward mediated by social contact in juvenile mice, the mice used were approximately 1-month old. After weaning the mice were maintained in social groups and left undisturbed until the start of the CPP assay. The paradigm was completed in 6 days. On the day before pre-testing the mice were socially isolated in their home cage. On day 1 of the procedure each mouse was placed in the central compartment and allowed to explore the entire apparatus freely for 30 min (pre-test). After the pre-test the initial preference of each mouse for a given side compartment was recorded. […] Conditioning was initiated on day 2 and encompassed four sessions performed on four consecutive days. In the first conditioning session mice were injected i.p. with CNO (5 mg kg) (or saline of an equivalent volume for some control mice) and placed for 1 h (based on the observation that CNO effects peak between 45 and 50 min after administration) in the initially non-preferred (I.N.P.) compartment. On day 3, during the second conditioning session, all mice were injected with saline and confined for 1 hr in the opposite (that is, initially preferred, I.P.) compartment. (The second conditioning session was performed the following day as CNO effects last for 9 hrs.) On day 4 and day 5 the first and second conditioning sessions were repeated, respectively. The time between the i.p. injections of CNO or saline and the placement of the mice in the compartment was between 5-10 min, which is compatible with the time that is needed for CNO to start having an effect. On day 6, the mice were tested for their side compartment preference by placing them in the centre compartment and allowing them to explore the entire apparatus freely for 30 min (post test). All sessions were conducted blind to the genotype/injected virus of each mouse. For the conditioned place aversion (CPA assay) the mice remained group-housed until the day before the pre-test. After the pre-test, on the first day of the conditioning session the mice were injected with saline and confined in the I.N.P. compartment. On the second day of conditioning the mice were injected with CNO (except for the saline control mice) and placed in the I.P. compartment. On the third and fourth day of conditioning the first and second sessions of conditioning were repeated, respectively. […]

[3] = system: MRGPRD+ neurons (hM3DREADD); assay: Conditioned place aversion (CPA) assay with CNO; conditions: CNO and DREADD, separate experiments, data not shown
Source text: Because our hypothesis is based on the social reward mediated by social contact in juvenile mice, the mice used were approximately 1-month old. After weaning the mice were maintained in social groups and left undisturbed until the start of the CPP assay. The paradigm was completed in 6 days. On the day before pre-testing the mice were socially isolated in their home cage. On day 1 of the procedure each mouse was placed in the central compartment and allowed to explore the entire apparatus freely for 30 min (pre-test). After the pre-test the initial preference of each mouse for a given side compartment was recorded. […] Conditioning was initiated on day 2 and encompassed four sessions performed on four consecutive days. In the first conditioning session mice were injected i.p. with CNO (5 mg kg) (or saline of an equivalent volume for some control mice) and placed for 1 h (based on the observation that CNO effects peak between 45 and 50 min after administration) in the initially non-preferred (I.N.P.) compartment. On day 3, during the second conditioning session, all mice were injected with saline and confined for 1 hr in the opposite (that is, initially preferred, I.P.) compartment. (The second conditioning session was performed the following day as CNO effects last for 9 hrs.) On day 4 and day 5 the first and second conditioning sessions were repeated, respectively. […]

With `C[N+]1([O-])CCN(C2=Nc3cc(Cl)ccc3Nc3ccccc32)CC1` [CNO, Clozapine-N-oxide] the “calcium transients after application to the spinal cord” value [1] was “able to induce calcium transients; also recorded: robust calcium transients”, the “difference of means of difference scores, experimental versus pooled controls” value ([2]; 95% confidence interval 62.9-339.3, Cohen's d=0.872) was 201±70 and the “difference score (time after conditioning minus before conditioning), saline-paired chamber” value ([2]; MrgprB4::hM3DREADD mice, n=15) was -340 ± 74 s. The “difference score (time after conditioning minus before conditioning), CNO-paired (I.N.P.) chamber” value ([2]; MrgprB4::hM3DREADD mice, n=15, p<0.01) was 253 ± 66 s, the “increase in the time spent in the I.N.P. chamber paired with CNO exposure” value ([2]; Mrgprb4-hM3DREADD mice, CNO 5 mg/kg i.p., pre- versus post-training, n=15, P<0.01) was 190±95% and the “change in the difference score for the I.N.P. chamber” value ([2]; control mice expressing hrGFP in MrgprB4+ (n=9) or MrgprD+ (n=10) neurons, conditioned with CNO) was “No significant change”. The “mean difference score of the experimental animals in the I.N.P. chamber” value ([2]; experimental group (FIG. 4e, j)) was 253±65.8, the “increase in preference score for the I.N.P. chamber (time in CNO/I.N.P. chamber divided by total time in the two test chambers)” value ([2]; experimental group, pre vs. post, p<0.001) was 195±86% and the “conditioned place aversion (CPA)” value [3] was “nor (in separate experiments) conditioned place aversion”.
